From patent publication US8440827B2, “Photolabile caged transition metal complexes and methods of using the same” (Duke University, priority 2008, dated 2013)
Read-outs that look alike come from different tables or passages of the source.

How the values were obtained:
[1] = constant of the model, taken from literature; cited from earlier work
[2] = Potentiometric titration of the apo-ligand H2cage; type: physicochemical; details: pH range 2 to 12
[3] = Potentiometric and pH-dependent spectrophotometric titrations of CuL; type: physicochemical; details: for Log β (overall stability constant): pH-dependent spectrophotometric titration, 25° C., 0.1 M NaClO4, Specfit, refined
Experimental: Cu(II) perchlorate solutions (0.1 M) were prepared from solid Cu(ClO4)2.6H2O and standardized with 0.05 M EDTA to a murexide endpoint in ammonia buffer. NaOH, HClO4, and NaClO4 solutions (0.1 M) were prepared with boiled nanopure deionized water and were degassed upon cooling to remove dissolved carbonate. NaOH solutions were standardized by titration with both 0.2 M HCl and potassium hydrogen phthalate to a phenolphthalein end point and were stored under Ar; HClO4 stock solutions were prepared from concentrated perchloric acid and standardized by titration with standard NaOH to a phenolphthalein end point. All solutions were degassed with Ar for 45 minutes prior to each experimental run.
Titrations were carried out at 25° C. with 0.1 M NaClO4 supporting electrolyte in a 3-mL cuvette equipped with a pH probe, titrator tip, and stir bar, and blanketed in Ar to preserve an inert environment. The glass-bulb probe (Orion combination pH electrode model 8103BN filled with 3 M NaCl) was calibrated with pH 4 and 7 standard reference buffers (RICCA Chemical Company). CuL solutions were prepared by dissolving [Cu(OH2)(cage)] recrystallized from methanol in 0.1 M NaClO4 to obtain CuL concentrations in the range of 0.5 mM. Initial volumes were between 2 and 2.2 mL. A Schott TITRONIC® 110 plus autotitrator kept under constant Ar sparge was used to deliver 2 to 4 μL aliquots of acid or base through the titrator tip into the reaction cuvette. The solutions were stirred constantly and allowed to equilibrate at least 30 s after each addition before data were collected. All titrations were carried out from low to high and from high to low pH with similar results.
Titration data for the CuL complex show two ionizable protons below pH 5.

[4] = Solubility of H2cage in solvents; type: physicochemical
Text: A ligand H2cage is obtained in a one-pot, two-step synthesis starting from 3-amino-3-(2-nitrophenyl)propionic acid. […] In the presence of Cu2+, however, protons are released from H2cage at pH 3.3 and 4.8, consistent with deprotonation of both amides.

[5] = Deoxyribose assay for hydroxyl radical production; details: for effect on OH• production by copper: relative to Cu2+ alone
Text: Hydroxyl radicals, which are generated in this assay by Fenton-like conditions of copper, ascorbic acid, and H2O2, degrade deoxyribose to give thiobarbituric acid (TBA)-reactive products with absorbance at 532 nm. Ligands added to the reaction mixture attenuate the amount of TBA-reactive species by altering the coordination environment around copper. […] The 2-deoxyribose assay was used to measure hydroxyl radical formation (Halliwell, B.; Gutteridge, […]. Anal. Biochem. 1987, 165, 215-219). A mixture of copper, ascorbic acid, and hydrogen peroxide generates hydroxyl radicals by Fenton-like chemistry. Hydroxyl radicals attack 2-deoxyribose to form malondialdehyde (MDA), which upon heating with TBA under acidic conditions produces a pink chromophore (λmax=532 nm). Chelators that prevent copper from reacting with ascorbic acid and hydrogen peroxide result in less chromophore formation. All assays were performed using 20 mM NaH2PO4 buffered to pH 7.4. The following reagents were added sequentially to obtain a 1 mL buffered solution with these final concentrations: chelator (10-20 μM), CuSO4 (10 μM), 2-deoxyribose (15 mM), H2O2 (100 μM), and ascorbic acid (2 mM). For photolyzed samples, 500 μM solutions of [Cu(OH2)(cage)] in 20 mM pH 7.4 NaH2PO4 buffer were photolyzed in screwtop quartz cuvettes for 4 min in the photoreactor, then immediately diluted into the deoxyribose reaction mixtures to obtain final concentrations of 10 μM in Cu. Stock solutions of CuSO4, ascorbic acid, and H2O2 were prepared fresh daily, other solutions were prepared weekly. […] The temperature was increased to 100° C. for 20 min, then cooled to room temperature and the absorbance at 532 nm was recorded. Values are reported as A/A0 where A0 is the absorbance without chelator present and A is the absorbance with chelator added. The value for CuSO4 alone is A/A0=1. Error bars represent standard deviations from measurements done in at least triplicate.

[6] = cited from earlier work
[7] = Competition study of nitrilotriacetic acid (NTA) vs. cage for Cu2+; type: binding; details: competition with NTA, 50 mM HEPES pH 7.4, 25° C., refined
Experimental: Solutions of CuL (where L=cage^2−) were prepared by dissolving [Cu(OH2)cage] that was recrystallized from methanol into 50 mM HEPES (N-(2-hydroxyethyl)-piperazine-N′-2-ethanesulfonic acid) buffer, pH 7.4, with initial concentrations ranging from 03-1.5 mM. The reaction vessel was a 3-mL cuvette and initial solution volumes were 1 mL. All titrations were carried out at 25° C. Aliquots (1-2 μL) of the competitive chelator NTA (100 mM) were pipetted into CuL solutions and monitored spectrophotometrically. After each addition, solutions were manually mixed and equilibrated for 5 min before data were collected. Reported errors in log β were calculated from the standard deviation of three runs.

[8] = Photolysis with 350 nm UV light, followed by UV-vis and LC-MS; type: physicochemical; details: pH 7.4 phosphate buffer
Text: The shift in the d-d band centered at 580 nm indicates a reorganization of the coordination sphere upon photolysis. The band for the intact Cu complex 2 disappears and is replaced by bands corresponding to the expected photoproducts 3 and 4, as confirmed by their mass spectra and by comparison to a picolinamide standard for 3. […] Reduction to Cu1+ is also possible as a result of photolysis, although it would likely reoxidize to Cu2+ under these experimental conditions.
All chemicals were purchased commercially and used without further purification. […] Elemental analysis was performed by Columbia Analytical Services, Inc. IR spectra were measured on a Nicolet 380 FT-IR. High-resolution, fast-atom bombardment (HR-FABMS) mass spectra were recorded on JEOL JMS-SX-102 instrument. […] A Varian Polaris C18 (150×1.0 mm) column was used and peaks were detected by UV absorption at 254 nm. […] UV-vis spectra were recorded on a Cary 50 UV-vis spectrophotometer. […]

O=C([O-])CN(CC(=O)[O-])CC(=O)O.[Cu+2] [Cu(NTA)]
Log β [1]: 12.7

O=C(CC(NC(=O)c1ccccn1)c1ccccc1[N+](=O)[O-])NCc1ccccn1 (stereo not shown) [H2cage, Pyridine-2-carboxylic acid {1-(2-nitro-phenyl)-2-[(pyridine-2-ylmethyl)-carbamoyl]-ethyl}-amide]
dissociable (ionizable) protons [2]: no dissociable protons
dissociable (ionizable) protons ([2]; listed as apo-ligand): no ionizable protons
pH at which protons are released from H2cage, higher value ([3]; in the presence of Cu2+): 4.8
pH at which protons are released from H2cage, lower value ([3]; in the presence of Cu2+): 3.3
solubility in methanol and ethanol [4]: very soluble
solubility in water [4]: moderately soluble
protection of deoxyribose degradation ([5]; compared to background reaction of Cu2+ alone, pH 7.4): 50%

O=C(O)CN(CC(=O)O)CC(=O)O [NTA, nitrilotriacetic acid, reference compound]
Kd ([6]; pH 7.4, read-out: KD for Cu2+): 23 pM
effect on OH• production by copper ([5]; pH 7.4): promotes OH• production

O=C(O)CN(CC(=O)O)CC(=O)O [NTAH3]
Log β [1]: 13.76

O=C(O)CN(CC(=O)O)CC(=O)O [NTAH4]
Log β [1]: 14.76

O=C1CC(c2ccccc2[N+](=O)[O-])[N](C(=O)c2ccccn2)[Cu]([OH])[N]1Cc1ccccn1 (stereo not shown) [[Cu(OH2)(cage)]]
Kd ([3]; pH 7.4, converted from log β, read-out: conditional dissociation constant, KD): 16 pM
Log β (overall stability constant) [3]: 10.8
Log β (overall stability constant) ([3]; listed as CuL): 10.80 ± 0.01
OH• production after uncaging by UV photolysis ([5]; photolyzed for 4 min, increase in A532): increases OH• production
Log β [7]: 10.79 ± 0.06
changes in UV-vis spectrum on exposure to UV light [8]: apparent within seconds
time of photolysis until cleavage of the ligand is complete ([8]; LC-MS): ≤ 4 min

NC(=O)c1ccccn1 [picolinamide]
log value for the 1:1 species ([6]; Cu2+ : ligand 1:1): 2.87
log value for the 1:2 species ([6]; Cu2+ : ligand 1:2): 5.40
effect on OH• production by copper ([5]; pH 7.4): improve the catalytic properties of the metal
